From ChEMBL document CHEMBL4261580, “Novel antitumor compound optimized from natural saponin Albiziabioside A induced caspase-dependent apoptosis and ferroptosis as a p53 activator through the mitochondrial pathway” (Eur J Med Chem, 2018) come the findings set out here.

For one test, the system named is A549. The experiment in a line: Antiproliferative activity against human A549 cells after 72 hrs by MTT assay. In kind it is functional, cell-based. The following applies: A549, 72 h.
Test [1] relates to HCT-116. The experiment in a line: Antiproliferative activity against human HCT116 cells after 72 hrs by MTT assay. In kind it is functional, cell-based. The following applies: HCT-116, 72 h. (In general: Tetrazolium dyes change colour on reduction, which living cells bring about.)
The nature of test [2]: Antiproliferative activity against human HBMEC cells after 72 hrs by MTT assay. Format: cell-based.
The nature of test [3]: Antiproliferative activity against human CCD-841 cells after 72 hrs by MTT assay. Format: cell-based. The settings on record: CCD-841, 72 h.
Another test deals with L02. As to the kind of experiment: Antiproliferative activity against human LO2 cells after 72 hrs by MTT assay. Format: cell-based. The settings on record: L02, 72 h.
A further test concerns HaCaT. As to the kind of experiment: Antiproliferative activity against human HaCaT cells after 72 hrs by MTT assay. Format: cell-based.
In another test the test system is HepG2. The experiment in a line: Antiproliferative activity against human HepG2 cells after 72 hrs by MTT assay. Format: functional, cell-based. The following applies: HepG2, 72 h.
The test system of the next test is MCF7. The experiment in a line: Antiproliferative activity against human MCF7 cells after 72 hrs by MTT assay. In kind it is functional, cell-based. The settings on record: MCF7, 72 h.
The test system of the next test is BEAS-2B. As to the kind of experiment: Antiproliferative activity against human BEAS2B cells after 72 hrs by MTT assay. In kind it is functional, cell-based.
The test system of a further test is MGC-803. The experiment in a line: Antiproliferative activity against human MGC803 cells after 72 hrs by MTT assay. In kind it is functional, cell-based. The settings on record: MGC-803, 72 h.
The test system of test [4] is HCT-116. As to the kind of experiment: Antitumor activity against human HCT116 cells xenografted in BALB/c nude mouse assessed as decrease in tumor weight at 20 mg/kg, iv administered once per day for 14 days and measured every 2 days. In kind it is functional. (In general: Xenograft models place foreign cells or tissue in a host animal.)
Test [5] concerns HCT-116. As to the kind of experiment: Antitumor activity against human HCT116 cells xenografted in BALB/c nude mouse assessed as decrease in tumor size at 20 mg/kg, iv administered once per day for 14 days and measured every 2 days. Format: functional.

Calls of active or inactive are those of the source. The calls are words filed in the database; no cut-off is given here.

As to `CC(=O)N[C@H]1[C@H](O[C@H]2CC[C@]3(C)[C@H]4CC=C5[C@@H]6CC(C)(C)CC[C@]6(C(=O)OCc6cn(-c7cccc(Br)c7)nn6)CC[C@@]5(C)[C@]4(C)CC[C@H]3C2(C)C)O[C@H](CO[C@@H]2OC[C@H](O)[C@H](O)[C@@H]2O)[C@@H](O)[C@@H]1O`, the concentration for half-maximal inhibition (IC50) came out at 10.2 µM in the test with A549; 9.93 µM in the test with HCT-116 [1]; 20.4 µM in test [2]; 18.2 µM in test [3]; 35.4 µM with L02; 39.3 µM with HaCaT. The IC50 is 5.51 µM with HepG2, 15 µM in the test on MCF7, 11.3 µM in the test with BEAS-2B and 7.7 µM in the test with MGC-803.

As for `CC(=O)N[C@H]1[C@H](O[C@H]2CC[C@]3(C)[C@H]4CC=C5[C@@H]6CC(C)(C)CC[C@]6(C(=O)O)CC[C@@]5(C)[C@]4(C)CC[C@H]3C2(C)C)O[C@H](CO[C@@H]2OC[C@H](O)[C@H](O)[C@@H]2O)[C@@H](O)[C@@H]1O`, the IC50 was determined as 17.6 µM with A549; 16 µM with HCT-116 [1]; 11.4 µM in the test with HepG2; 21.9 µM in the test with MCF7; 20.8 µM with MGC-803. Besides, the result in the test on HCT-116 [4] and with HCT-116 [5] was Active.

For the compound `CC(=O)N[C@H]1[C@H](O[C@H]2CC[C@]3(C)[C@H]4CC=C5[C@@H]6CC(C)(C)CC[C@]6(C(=O)OCc6cn(-c7cccc(I)c7)nn6)CC[C@@]5(C)[C@]4(C)CC[C@H]3C2(C)C)O[C@H](CO[C@@H]2OC[C@H](O)[C@H](O)[C@@H]2O)[C@@H](O)[C@@H]1O`, the 50% inhibitory concentration (IC50) is 9.08 µM in the test on A549; 12.2 µM in the test on HCT-116 [1]; 18.7 µM in test [2]; 36.5 µM in test [3]; 27.4 µM in the test with L02; 29.5 µM with HaCaT. For the same compound, the half-maximal inhibitory concentration (IC50) in the test with HepG2 stood at 5.39 µM; in the test with MCF7 it was 10.8 µM; in the test with BEAS-2B, 14.6 µM; in the test with MGC-803 it was 10.1 µM.

Take `CC(=O)N[C@H]1[C@H](O[C@H]2CC[C@]3(C)[C@H]4CC=C5[C@@H]6CC(C)(C)CC[C@]6(C(=O)OCc6cn(-c7ccccc7Br)nn6)CC[C@@]5(C)[C@]4(C)CC[C@H]3C2(C)C)O[C@H](CO[C@@H]2OC[C@H](O)[C@H](O)[C@@H]2O)[C@@H](O)[C@@H]1O`: the IC50 with A549 was 65.2 µM; in the test with HCT-116 [1] it was 13.2 µM; with HepG2 it was 61.7 µM; with MCF7 it was 68.2 µM; in the test on MGC-803, 54.7 µM.

For `CC(=O)N[C@H]1[C@H](O[C@H]2CC[C@]3(C)[C@H]4CC=C5[C@@H]6CC(C)(C)CC[C@]6(C(=O)OCc6cn(-c7ccccc7OC(F)(F)F)nn6)CC[C@@]5(C)[C@]4(C)CC[C@H]3C2(C)C)O[C@H](CO[C@@H]2OC[C@H](O)[C@H](O)[C@@H]2O)[C@@H](O)[C@@H]1O`, the IC50 was found to be 15 µM in the test with A549; 37.9 µM in the test on HCT-116 [1]; 31.6 µM in the test with HepG2; 32 µM with MCF7; 36.9 µM in the test with MGC-803.

On to `CC(=O)N[C@H]1[C@H](O[C@H]2CC[C@]3(C)[C@H]4CC=C5[C@@H]6CC(C)(C)CC[C@]6(C(=O)OCc6cn(-c7cccc(F)c7)nn6)CC[C@@]5(C)[C@]4(C)CC[C@H]3C2(C)C)O[C@H](CO[C@@H]2OC[C@H](O)[C@H](O)[C@@H]2O)[C@@H](O)[C@@H]1O`, for which the half-maximal inhibitory concentration (IC50) in the test with A549 was found to be 19.6 µM; with HCT-116 [1], 11.1 µM; in the test with HepG2 it was 18.2 µM; in the test with MCF7 it was 34.3 µM; with MGC-803 it was 18.4 µM.

The term IC50 denotes the concentration at which inhibition is half-maximal.
